In patent USRE38257E1, “Piperdine derivatives and hypotensives containing the same” (Ajinomoto Co., Inc., priority 1988, dated 2003):

System: male spontaneously hypertensive rats
Test: Decrease in systolic blood pressure in spontaneously hypertensive rats after intravenous bolus injection, indirect (tail-cuff) method
Format: in vivo, rat
Conditions: for Decrease in systolic blood pressure (mmHg) time after administration (hour) 0.5: 0.5 hour after administration; for Decrease in systolic blood pressure (mmHg) time after administration (hour) 4: 4 hours after administration
Description: As test animals, four male spontaneously hypertensive rats (weight 400 to 440 g) that were sufficiently adapted for feeding and in which hypertension was confirmed were used.
Physiological saline aqueous solution containing 2.5% Nicolle and 2.5% ethanol of sample was intravenously administered by bolus injection at a dose of 1 ml per 1 kg of body weight. Systolic blood pressure after administration was measured by the indirect (tail-cuff) method.

[1] = dose 10 mg/kg i.v. bolus, hydrochloride, 10 mg/kg

## C1=Cc2ccccc2C(=C2CCN(CCCCC3CCCCC3)CC2)c2ccccc21.Cl [Example 10, 1-Cyclohexyl-4-(4-(5H-dibenzo[a,d]cyclohepten-5-ylidene)-1-piperidinyl)butane hydrochloride]
[1]
  Decrease in systolic blood pressure (mmHg) time after administration (hour) 0.5: −129 mmHg
  Decrease in systolic blood pressure (mmHg) time after administration (hour) 4: −21 mmHg

## CC(=O)Oc1ccc(C=CCN2CCC(=C3c4ccccc4C=Cc4ccccc43)CC2)cc1.Cl [Example 364, 1-(4-Acetoxycinnamyl)-4-(5H-Dibenzo[a,d]cyclohepten-5-ylidene)piperidine hydrochloride]
Dose 1 mg/kg i.v. bolus
  Decrease in systolic blood pressure (mmHg) time after administration (hour) 0.5: −113 mmHg

## Cl.O=C(CCCN1CCC(=C2c3ccccc3C=Cc3ccccc32)CC1)c1cccs1 [Example 234, 4-(4-(5H-Dibenzo[a,d]cyclohepten-5-ylidene)-1-piperidinyl)-1-(2-thienyl)-1-butanone hydrochloride]
Dose 10 mg/kg i.v. bolus
  Decrease in systolic blood pressure (mmHg) time after administration (hour) 0.5: −96 mmHg
  Decrease in systolic blood pressure (mmHg) time after administration (hour) 4: −2 mmHg

## 2,6-Dimethyl-4-(4-(4-(5H-dibenzo[a,d]cyclohepten-5-ylidene)-1-piperidinyl)butyl)-5-methyl-1,4-dihydropyrydine-3,5-dicarboxylate hydrochloride [Example 285]
Dose 10 mg/kg i.v. bolus
  Decrease in systolic blood pressure (mmHg) time after administration (hour) 0.5: −62 mmHg
  Decrease in systolic blood pressure (mmHg) time after administration (hour) 4: −7 mmHg

## Cl.O=[N+]([O-])c1ccc(CCCCN2CCC(=C3c4ccccc4C=Cc4ccccc43)CC2)cc1 [Example 196, 4-(5H-Dibenzo[a,d]cyclohepten-5-ylidene)-1-(4-(4-nitrophenyl)butyl)piperidine hydrochloride]
Dose 10 mg/kg i.v. bolus
  Decrease in systolic blood pressure (mmHg) time after administration (hour) 0.5: −145 mmHg
  Decrease in systolic blood pressure (mmHg) time after administration (hour) 4: −81 mmHg

## CC(=O)Nc1ccccc1CCCN1CCC(=C2c3ccccc3C=Cc3ccccc32)CC1.Cl.Cl [Example 252, 1-(2-Acetylaminophenyl)-3-(4-(5H-Dibenzo[a,d]cyclohepten-5-ylidene)-1-piperidinyl)propane dihydrochloride]
Dose 10 mg/kg i.v. bolus
  Decrease in systolic blood pressure (mmHg) time after administration (hour) 0.5: −23 mmHg
  Decrease in systolic blood pressure (mmHg) time after administration (hour) 4: −5 mmHg

## COc1ccc(C(=O)CCCCN2CCC(=C3c4ccccc4C=Cc4ccccc43)CC2)cc1OC.Cl [Example 169, 5-(4-(5H-Dibenzo[a,d]cyclohepten-5-ylidene)-1-piperidinyl)-3′,4′-dimethoxyvalerophenone hydrochloride]
Dose 10 mg/kg i.v. bolus
  Decrease in systolic blood pressure (mmHg) time after administration (hour) 0.5: −130 mmHg
  Decrease in systolic blood pressure (mmHg) time after administration (hour) 4: −4 mmHg

## Cc1ccccc1CN1CCC(=C2c3ccccc3C=Cc3ccccc32)CC1.Cl [Example 131, 4-(5H-Dibenzo[a,d]cyclohepten-5-ylidene)-1-(2-methylbenyl)piperidine hydrochloride]
Dose 10 mg/kg i.v. bolus
  Decrease in systolic blood pressure (mmHg) time after administration (hour) 0.5: −116 mmHg
  Decrease in systolic blood pressure (mmHg) time after administration (hour) 4: 2 mmHg

## COc1ccc(CN2CCC(=C3c4ccccc4C=Cc4ccccc43)CC2)cc1OC [Example 175, 4-(5H-Dibenzo[a,d]cyclohepten-5-ylidene)-1-(3,4-dimethoxybenzyl)piperidine]
Dose 10 mg/kg i.v. bolus
  Decrease in systolic blood pressure (mmHg) time after administration (hour) 0.5: −87 mmHg
  Decrease in systolic blood pressure (mmHg) time after administration (hour) 4: −1 mmHg

## Cl.OC(CCCN1CCC(=C2c3ccccc3C=Cc3ccccc32)CC1)c1ccccc1 (centres unmarked) [Example 101, 4-(4-(5H-Dibenzo[a,d]cyclohepten-5-ylidene)-1-piperidinyl)-1-hydroxy-1-phenylbutane hydrochloride]
Dose 10 mg/kg i.v. bolus
  Decrease in systolic blood pressure (mmHg) time after administration (hour) 0.5: −89 mmHg
  Decrease in systolic blood pressure (mmHg) time after administration (hour) 4: −14 mmHg

## CCCCCCCCCCCCN1CCC(=C2c3ccccc3C=Cc3ccccc32)CC1.Cl [Example 4, 4-(5H-Dibenzo[a,d]cyclohepten-5-ylidene)-1-dodecylpiperidine hydrochloride]
Dose 10 mg/kg i.v. bolus
  Decrease in systolic blood pressure (mmHg) time after administration (hour) 0.5: −76 mmHg
  Decrease in systolic blood pressure (mmHg) time after administration (hour) 4: 0 mmHg

## Cl.Cl.Nc1ccc(CCCCN2CCC(=C3c4ccccc4C=Cc4ccccc43)CC2)cc1 [Example 195, 1-(4-(4-Aminophenyl)butyl)-4-(5H-dibenzo[a,d]cyclohepten-5-ylidine)piperidine dihydrochloride]
Dose 10 mg/kg i.v. bolus
  Decrease in systolic blood pressure (mmHg) time after administration (hour) 0.5: −100 mmHg
  Decrease in systolic blood pressure (mmHg) time after administration (hour) 4: −51 mmHg

## CC(=O)Nc1ccc(CCCN2CCC(=C3c4ccccc4C=Cc4ccccc43)CC2)cc1.Cl.Cl [Example 249, 1-(4-Acetylaminophenyl)-3-(4-(5H-Dibenzo[a,d]cyclohepten-5-ylidene)-1-piperidinyl)propane dihydrochloride]
Dose 10 mg/kg i.v. bolus
  Decrease in systolic blood pressure (mmHg) time after administration (hour) 0.5: −121 mmHg
  Decrease in systolic blood pressure (mmHg) time after administration (hour) 4: −100 mmHg

## Cc1ccccc1C(=O)N1CCC(=C2c3ccccc3C=Cc3ccccc32)CC1 [Example 190, 4-(5H-Dibenzo[a,d]cyclohepten-5-ylidene)-1-(2-methylbenzoyl)piperidine]
Dose 10 mg/kg i.v. bolus
  Decrease in systolic blood pressure (mmHg) time after administration (hour) 0.5: −11 mmHg
  Decrease in systolic blood pressure (mmHg) time after administration (hour) 4: −15 mmHg

## CCCCCCN1CCC(=C2c3ccccc3C=Cc3ccccc32)CC1.Cl [Example 1, 4-(5H-Dibenzo[a,d]cyclohepten-5-ylidene)-1-hexylpiperidine hydrochloride]
Dose 10 mg/kg i.v. bolus
  Decrease in systolic blood pressure (mmHg) time after administration (hour) 0.5: −67 mmHg
  Decrease in systolic blood pressure (mmHg) time after administration (hour) 4: 1 mmHg

## 5-(4-(5H-Dibenzo[a,d]cyclohepten-5-ylidene)-1-piperidinyl)-2-phenylvaleronitrile hydrochloride [Example 121]
Dose 10 mg/kg i.v. bolus
  Decrease in systolic blood pressure (mmHg) time after administration (hour) 0.5: −42 mmHg
  Decrease in systolic blood pressure (mmHg) time after administration (hour) 4: −19 mmHg

## 4-(2-(4-(5H-Dibenzo[a,d]cyclohepten-5-ylidene)-1-piperidinyl)-1-ehtyl)-2,4,5,6-tetramethyl-1,4-dihydropyridino-3,5-dicarboxylate hydrochloride [Example 311]
Dose 10 mg/kg i.v. bolus
  Decrease in systolic blood pressure (mmHg) time after administration (hour) 0.5: −90 mmHg
  Decrease in systolic blood pressure (mmHg) time after administration (hour) 4: −18 mmHg

## CCOC(=O)CCCN1CCC(=C2c3ccccc3C=Cc3ccccc32)CC1.Cl [Example 199, Ethyl 4-(4-(5H-dibanzo[a,d]cyclohepten-5-ylidene)-1-piperidinyl)butyrate hydrochloride]
Dose 10 mg/kg i.v. bolus
  Decrease in systolic blood pressure (mmHg) time after administration (hour) 0.5: −15 mmHg
  Decrease in systolic blood pressure (mmHg) time after administration (hour) 4: −24 mmHg

## Cl.N#CCCCN1CCC(=C2c3ccccc3C=Cc3ccccc32)CC1 [Example 166, 1-Cyano-4-[4-(5H-dibenzo[a,d]cyclohepten-5-ylidene)-1-piperidinyl)propane hydrochloride]
[1]
  Decrease in systolic blood pressure (mmHg) time after administration (hour) 0.5: −45 mmHg
  Decrease in systolic blood pressure (mmHg) time after administration (hour) 4: 6 mmHg

## Cl.OC(CCCN1CCC(=C2c3ccccc3C=Cc3ccccc32)CC1)c1ccc(F)cc1 (centres unmarked) [Example 108, 4-(4-(5H-Dibenzo[a,d]cyclohepten-5-ylidene)-1-piperidinyl)-1-hydroxy-1-(4-fluorophenyl)butane hydrochloride]
Dose 10 mg/kg i.v. bolus
  Decrease in systolic blood pressure (mmHg) time after administration (hour) 0.5: −126 mmHg
  Decrease in systolic blood pressure (mmHg) time after administration (hour) 4: −50 mmHg

## C=CCC(CCN1CCC(=C2c3ccccc3C=Cc3ccccc32)CC1)C(=O)c1ccc(OC)c(OC)c1.Cl (centres unmarked) [Example 276, 2-Allyl-4-(4-(5H-dibenzo[a,d]cyclohepten-5-ylidene)-1-piperidinyl)-3′,4′dimethoxybutyrophenone hydrochloride]
Dose 10 mg/kg i.v. bolus
  Decrease in systolic blood pressure (mmHg) time after administration (hour) 0.5: −24 mmHg
  Decrease in systolic blood pressure (mmHg) time after administration (hour) 4: −1 mmHg

## Cl.N#Cc1cccc(CN2CCC(=C3c4ccccc4C=Cc4ccccc43)CC2)c1 [Example 159, 1-(3-Cyanobenzyl)-4-(5H-dibenzo[a,d]cyclohepten-5-ylidene)piperidine hydrochloride]
Dose 10 mg/kg i.v. bolus
  Decrease in systolic blood pressure (mmHg) time after administration (hour) 0.5: −27 mmHg
  Decrease in systolic blood pressure (mmHg) time after administration (hour) 4: −12 mmHg

## CN1CCCC(CCCCN2CCC(=C3c4ccccc4C=Cc4ccccc43)CC2)C1.Cl.Cl (centres unmarked) [Example 295, 4-(4-(5H-Dibenzo[a,d]cyclohepten-5-ylidene)-1-piperidinyl)-1-(N-methyl-3-piperidinyl)butane dihydrochloride]
Dose 3 mg/kg i.v. bolus
  Decrease in systolic blood pressure (mmHg) time after administration (hour) 0.5: −36 mmHg
  Decrease in systolic blood pressure (mmHg) time after administration (hour) 4: 1 mmHg

## COc1ccc(C(=O)C(C)CCN2CCC(=C3c4ccccc4C=Cc4ccccc43)CC2)cc1OC.Cl (centres unmarked) [Example 274, 4-(4-(5H-Dibenzo[a,d]cyclohepten-5-ylidene)-1-piperidinyl)-2-methyl-3′,4′-dimethoxybutyrophenone hydrochloride]
Dose 10 mg/kg i.v. bolus
  Decrease in systolic blood pressure (mmHg) time after administration (hour) 0.5: −102 mmHg
  Decrease in systolic blood pressure (mmHg) time after administration (hour) 4: −21 mmHg

## Cl.O=[N+]([O-])c1cccc(C=CCN2CCC(=C3c4ccccc4C=Cc4ccccc43)CC2)c1 [Example 306, 4-(5H-Dibenzo[a,d]cyclohepten-5-ylidene)-1-(3-nitrocinnamyl)piperidine hydrochloride]
Dose 10 mg/kg i.v. bolus
  Decrease in systolic blood pressure (mmHg) time after administration (hour) 0.5: −138 mmHg
  Decrease in systolic blood pressure (mmHg) time after administration (hour) 4: −37 mmHg

## COc1ccc(CCCCN2CCC(=C3c4ccccc4C=Cc4ccccc43)CC2)cc1NC(C)=O.Cl [Example 282, 1-(3-Acetylamino-4-methoxyphenyl)-4-(4-(5H-dibenzo[a,d]cyclohepten-5-ylidene)-1-piperidinyl)butane hydrochloride]
Dose 10 mg/kg i.v. bolus
  Decrease in systolic blood pressure (mmHg) time after administration (hour) 0.5: −72 mmHg
  Decrease in systolic blood pressure (mmHg) time after administration (hour) 4: −15 mmHg

## C1=Cc2ccccc2C(=C2CCN(CCCCc3ccc[nH]3)CC2)c2ccccc21.Cl [Example 293, 4-(4-(5H-Dibenzo[a,d]cyclohepten-5-ylidene)-1-piperidinyl)-1-(2-pyrolle)-1-butane hydrochloride]
Dose 10 mg/kg i.v. bolus
  Decrease in systolic blood pressure (mmHg) time after administration (hour) 0.5: −122 mmHg
  Decrease in systolic blood pressure (mmHg) time after administration (hour) 4: 4 mmHg
